Measured values taken from patent US9801901B2, “Alginate oligomers for use in overcoming multidrug resistance in bacteria” (priority 2009, dated 2017).
In brackets after ≈: the same amount, converted by molar mass. Read-outs that look alike come from different tables or passages of the source. Marks after values point to notes of the source that are not given here.

Tests used:
V11 5702 (Wales) E. coli = assay: MIC assay, CAMHB with alginate oligomer, no visible growth; type: cell-based; conditions: Table 5, V11 MDR E.coli
[1] = tested on: PA01 Pseudomonas aeruginosa ATCC 15692; assay: MIC assay, two-fold antibiotic dilutions in CAMHB with alginate oligomer, no visible growth; type: cell-based; conditions: PA01 non MDR
[2] = tested on: Pseudomonas aeruginosa CFA 24-1, clinical mucoid strain (R80); assay: MIC assay, CAMHB with alginate oligomer, no visible growth; type: cell-based; conditions: Table 4, R80 non MDR (muc.)
[3] = tested on: Pseudomonas aeruginosa MDR 301 from Poland (V2); assay: as above; type: cell-based; conditions: Table 4, V2 MDR (Pol.)
[4] = tested on: V10 (Egypt) Acinetobacter lwoffii; assay: as above; type: cell-based; conditions: Table 5, V10 MDR Acin. lwoff
V22 6056 Acinetobacter = assay: as above; type: cell-based, Acinetobacter lwoffii; conditions: Table 5, V22 MDR Acin. lwoff
[5] = tested on: Acinetobacter baumannii MDR ACB from Libya (V4); assay: as above; type: cell-based; conditions: Table 4, V4 MDR (Libya)
Text: (§1) The study described in Example 1 was repeated with the following strains of bacteria and antibiotics as detailed in Tables 4, 5 and 6.
The study described in Example 1 was repeated with the following strains of Acinetobacter baumannii, antibiotics and M-block alginate oligomer in place of OligoG CF-5/20 as detailed in Table 7. The M-block oligomer is 100% M with a DPn of 15 to 18,

[6] = tested on: V9 (Egypt) Acinetobacter baumannii; assay: as above; type: cell-based; conditions: Table 5, V9 MDR Acin. baum
[7] = tested on: Pseudomonas aeruginosa ATCC 39324, mucoid type strain (R79); assay: as above; type: cell-based; conditions: R79 non MDR (muc.)
[8] = tested on: V23 1322 Burkholderia cepacia; assay: as above; type: cell-based
[9] = tested on: V12 5725 (Wales) Klebsiella pneumoniae; assay: as above; type: cell-based; conditions: Table 5, V12 MDR Kleb pneu
[10] = tested on: Pseudomonas aeruginosa MDR R22 from China (V1); assay: as above; type: cell-based; conditions: Table 4, V1 MDR (China)
Text: as §1

V5 AIM-1 E. coli = assay: as above; type: cell-based; conditions: Table 4, V5 MDR E. coli
Text: as §1

[11] = tested on: Klebsiella pneumoniae KP05 506 from India (V3); assay: as above; type: cell-based; conditions: Klebsiella pneumoniae, Table 4; V3 MDR (India); OligoCF-5/20 +10% G; read-out: MIC
[12] = Table 5, V23 MDR Burk cep, OligoCF-5/20 +6% G
[13] = Table 5, V23 MDR Burk cep, OligoCF-5/20 +10% G
[14] = Pseudomonas aeruginosa, OligoCF-5/20 0G, read-out: MIC
[15] = Pseudomonas aeruginosa, OligoCF-5/20 +2% G, read-out: MIC
[16] = Pseudomonas aeruginosa, OligoCF-5/20 +10% G, read-out: MIC
[17] = Pseudomonas aeruginosa, OligoCF-5/20 +6% G, read-out: MIC
[18] = Acinetobacter baumannii, OligoCF-5/20 0G, read-out: MIC

Spiramycin was tested, and the MIC (V11 5702 (Wales) E. coli; OligoCF-5/20 0G) was 128^† μg/ml, the MIC (V11 5702 (Wales) E. coli; OligoCF-5/20 +2% G) was 64^† μg/ml and the MIC (V11 5702 (Wales) E. coli; OligoCF-5/20 +6% G) was 32^† μg/ml. The MIC (V11 5702 (Wales) E. coli; OligoCF-5/20 +10% G) was 32^† μg/ml, the MIC ([1]; Table 4, OligoCF-5/20 0G) was >1024^† μg/ml and the MIC ([1]; Table 4, OligoCF-5/20 +10% G) was 512^† μg/ml. For the same molecule, the MIC ([2]; OligoCF-5/20 0G) was >1024^† μg/ml, the MIC ([3]; OligoCF-5/20 0G) was >1024^† μg/ml and the MIC ([4]; OligoCF-5/20 0G) was under 4 mg/L. The MIC ([4]; OligoCF-5/20 +2% G) was under 4 mg/L, the MIC ([4]; OligoCF-5/20 +6% G) was under 4 mg/L and the MIC ([4]; OligoCF-5/20 +10% G) was under 4 mg/L. It also gave an MIC (V22 6056 Acinetobacter; OligoCF-5/20 0G) of under 4 mg/L, an MIC (V22 6056 Acinetobacter; OligoCF-5/20 +2% G) of under 4 mg/L and an MIC (V22 6056 Acinetobacter; OligoCF-5/20 +6% G) of under 4 mg/L. The MIC (V22 6056 Acinetobacter; OligoCF-5/20 +10% G) was under 4 mg/L, the MIC ([5]; OligoCF-5/20 0G) was 512^† μg/ml and the MIC ([5]; OligoCF-5/20 +2% G) was 64^† μg/ml. The MIC ([5]; OligoCF-5/20 +6% G) was 64^† μg/ml, the MIC ([5]; OligoCF-5/20 +10% G) was 32^† μg/ml and the MIC ([6]; OligoCF-5/20 0G) was 256^† μg/ml. The MIC ([6]; OligoCF-5/20 +2% G) was 64^† μg/ml, the MIC ([6]; OligoCF-5/20 +6% G) was 32^† μg/ml and the MIC ([6]; OligoCF-5/20 +10% G) was 16^† μg/ml. For the same molecule, the MIC ([7]; Table 4, OligoCF-5/20 0G) was >1024^† μg/ml, the MIC ([7]; Table 4, OligoCF-5/20 +10% G) was 256^† μg/ml and the MIC ([8]; Table 5, V23 MDR Burk cep, OligoCF-5/20 0G) was >4096^† μg/ml. For the same molecule, the MIC ([8]; Table 5, V23 MDR Burk cep, OligoCF-5/20 +2% G) was 2048^† μg/ml, the MIC [8, 12] was 2048^† μg/ml and the MIC [8, 13] was 1024^† μg/ml. For the same molecule, the MIC ([9]; OligoCF-5/20 0G) was 67^† μg/ml, the MIC ([9]; OligoCF-5/20 +2% G) was 64 µg/mL and the MIC ([9]; OligoCF-5/20 +6% G) was 32^† μg/ml. For the same molecule, the MIC ([9]; OligoCF-5/20 +10% G) was 16† μg/ml, the MIC ([10]; OligoCF-5/20 0G) was >1024^† μg/ml and the MIC ([10]; OligoCF-5/20 +10% G) was 512^† μg/ml. For the same molecule, the MIC (V5 AIM-1 E. coli; OligoCF-5/20 0G) was 32^† μg/ml, the MIC (V5 AIM-1 E. coli; OligoCF-5/20 +2% G) was 32 µg/mL and the MIC (V5 AIM-1 E. coli; OligoCF-5/20 +6% G) was 16^† μg/ml. The MIC (V5 AIM-1 E. coli; OligoCF-5/20 +10% G) was 8† μg/ml.
With CC[C@H]1OC(=O)[C@H](C)[C@@H](O[C@H]2C[C@@](C)(OC)[C@@H](O)[C@H](C)O2)[C@H](C)[C@@H](O[C@@H]2O[C@H](C)C[C@H](N(C)C)[C@H]2O)[C@](C)(OC)C[C@@H](C)C(=O)[C@H](C)[C@@H](O)[C@]1(C)O [Clarithromycin] the MIC (V11 5702 (Wales) E. coli; Escherichia coli, OligoCF-5/20 0G, read-out: MIC) was 512 mg/L (≈ 685 µM), the MIC (V11 5702 (Wales) E. coli; OligoCF-5/20 +2% G) was 128^† μg/ml and the MIC ([1]; Pseudomonas aeruginosa, ATCC15692, Table 4, OligoCF-5/20 +2% G, read-out: MIC) was 128 mg/L (≈ 171 µM). The MIC ([1]; Pseudomonas aeruginosa, ATCC15692, Table 4, OligoCF-5/20 +6% G, read-out: MIC) was 64 mg/L (≈ 85.6 µM), the MIC ([1]; Pseudomonas aeruginosa, ATCC15692, Table 4, OligoCF-5/20 +10% G, read-out: MIC) was 32 mg/L (≈ 42.8 µM) and the MIC [11] was 128 mg/L (≈ 171 µM). The MIC [2, 14] was 1020 mg/L (≈ 1370 µM), the MIC [2, 15] was 512 mg/L (≈ 685 µM) and the MIC [2, 16] was 64 mg/L (≈ 85.6 µM). It also gave an MIC [3, 14] of 512 mg/L (≈ 685 µM), an MIC [3, 17] of 128 mg/L (≈ 171 µM) and an MIC [3, 16] of 32 mg/L (≈ 42.8 µM). For the same molecule, the MIC ([4]; Acinetobacter lwoffii, OligoCF-5/20 0G, read-out: MIC) was under 0.5 mg/L, the MIC ([4]; OligoCF-5/20 +6% G) was under 0.5 mg/L and the MIC ([4]; OligoCF-5/20 +10% G) was under 0.5 mg/L. It also gave an MIC [5, 18] of 8 mg/L (≈ 10.7 µM), an MIC ([5]; Acinetobacter baumannii, OligoCF-5/20 +2% G, read-out: MIC) of 4 mg/L (≈ 5.35 µM) and an MIC ([5]; Acinetobacter baumannii, OligoCF-5/20 +6% G, read-out: MIC) of at most 1 mg/L. For the same molecule, the MIC ([5]; Acinetobacter baumannii, OligoCF-5/20 +10% G, read-out: MIC) was at most 1 mg/L, the MIC [6, 18] was 16 mg/L (≈ 21.4 µM) and the MIC ([6]; OligoCF-5/20 +2% G) was 4^† μg/ml. For the same molecule, the MIC ([6]; OligoCF-5/20 +6% G) was 2^† μg/ml, the MIC ([6]; OligoCF-5/20 +10% G) was 1^† μg/ml and the MIC ([7]; Pseudomonas aeruginosa, ATCC39324, Table 4, OligoCF-5/20 +2% G, read-out: MIC) was 128 mg/L (≈ 171 µM). For the same molecule, the MIC ([7]; Pseudomonas aeruginosa, ATCC39324, Table 4, OligoCF-5/20 +6% G, read-out: MIC) was 32 mg/L (≈ 42.8 µM), the MIC ([7]; Pseudomonas aeruginosa, ATCC39324, Table 4, OligoCF-5/20 +10% G, read-out: MIC) was 4 mg/L (≈ 5.35 µM) and the MIC ([8]; Burkholderia cepacia, Table 5, V23 MDR Burk cep, OligoCF-5/20 0G, read-out: MIC) was 512 mg/L (≈ 685 µM). For the same molecule, the MIC ([8]; Burkholderia cepacia, Table 6, V23, Experiment 2 (18-03-10), OligoCF-5/20 0G, read-out: MIC) was 128 mg/L (≈ 171 µM), the MIC ([8]; Burkholderia cepacia, Table 6, V23, Experiment 3 (19-03-10), OligoCF-5/20 0G, read-out: MIC) was 64 mg/L (≈ 85.6 µM) and the MIC [8, 12] was 128^† μg/ml. For the same molecule, the MIC [8, 13] was 32^† μg/ml, the MIC ([8]; Table 6, V23, Experiment 1 (18-03-10), OligoCF-5/20 +6% G) was 128^† μg/ml and the MIC ([8]; Table 6, V23, Experiment 1 (18-03-10), OligoCF-5/20 +10% G) was 128^† μg/ml. For the same molecule, the MIC ([8]; Table 6, V23, Experiment 2 (18-03-10), OligoCF-5/20 +2% G) was 128 mg/L (≈ 171 µM), the MIC ([8]; Table 6, V23, Experiment 2 (18-03-10), OligoCF-5/20 +6% G) was 32^† μg/ml and the MIC ([8]; Table 6, V23, Experiment 2 (18-03-10), OligoCF-5/20 +10% G) was 16^† μg/ml. The MIC ([8]; Table 6, V23, Experiment 3 (19-03-10), OligoCF-5/20 +2% G) was 512^‡ μg/ml, the MIC ([8]; Table 6, V23, Experiment 3 (19-03-10), OligoCF-5/20 +6% G) was 512^‡ μg/ml and the MIC ([8]; Table 6, V23, Experiment 3 (19-03-10), OligoCF-5/20 +10% G) was 512‡ μg/ml. The MIC ([9]; Klebsiella pneumoniae, OligoCF-5/20 0G, read-out: MIC) was 512 µg/mL (≈ 685 µM), the MIC ([9]; OligoCF-5/20 +10% G) was 512 µg/mL (≈ 685 µM) and the MIC [10, 15] was 128 mg/L (≈ 171 µM). For the same molecule, the MIC [10, 17] was 64 mg/L (≈ 85.6 µM), the MIC [10, 16] was 32 mg/L (≈ 42.8 µM) and the MIC (V5 AIM-1 E. coli; Escherichia coli, OligoCF-5/20 0G) was 4 µg/mL (≈ 5.35 µM). The MIC (V5 AIM-1 E. coli; Escherichia coli, OligoCF-5/20 +2% G) was 4 µg/mL (≈ 5.35 µM), the MIC (V5 AIM-1 E. coli; Escherichia coli, OligoCF-5/20 +6% G) was at most 1 µg/mL and the MIC (V5 AIM-1 E. coli; Escherichia coli, OligoCF-5/20 +10% G) was at most 1 µg/mL.
